Test results reported in patent US11566168B1, “Biocide blend for treating wellbores” (Halliburton Energy Services, Inc., priority 2021, dated 2023).

What was measured:
[1] = test system: acid producing bacteria (APB); assay: Elevated temperature study of biocides, kill testing of APB; type: cell-based, indigenous acid producing bacteria; conditions: for biocidal effectiveness against APB (FIG. 1): biocide-dosed water at 93° C. for 1 week, then 5 days at 32° C. with bacteria
Protocol: (§1) To facilitate a better understanding of the various embodiments, the following examples are given. […] Kill testing was performed at 32° C. (89.6° F.) at various contact times as follows. Bacterial populations were augmented prior to testing by culturing indigenous acid producing bacteria (APB) and sulfate reducing bacteria (SRB) in sample waters before starting kill studies. Prior to testing, cultures of APB and SRB from water samples were grown in culture medium. APB were grown in anaerobic phenol red dextrose medium (PRD). SRB were grown in American Petroleum Institute (API) medium without iron. The total dissolved solids (TDS) of SRB and APB media were selected to simulate wellbore fluids for some of the testing. Immediately preceding biocide testing, cultures were harvested by centrifugation. Cell pellets from mature bacteria were resuspended in sample water. The sample water, augmented with bacteria, was dispensed into 60 mL glass bottles and the appropriate amount of biocide was added. At the stated contact time of either 4 hours or 24 hours, biocide samples were taken for quantification. A standard serial dilution method into culture media was used to test biocide efficacy. Controls were serial diluted to theoretical extinction, while biocide-dosed samples were carried through 6 ten-fold dilutions as represented on the Y-axis of the figures. APB were quantitated by serial dilution into PRD medium. SRB were quantified by serial dilution into modified Postgate's medium B (MBP). Culture media were incubated at 32° C. (89.6° F.) and checked periodically. A change from red to yellow indicated a positive APB bottle. Formation of a black precipitate indicated a positive SRB bottle.
(§2) Elevated temperature studies of the biocides as shown in FIGS. 1 and 2 were conducted by adding 2 times the final biocide test concentration to 100 mL of sample water. The biocide-dosed sample was placed at 93° C. (199.4° F.) for 1 week or 2 weeks, FIG. 1 and FIG. 2, respectively. Following exposure to the elevated temperature, the heat-exposed biocide-dosed material was combined with an equal amount of sample water augmented with APB or SRB bacteria. The sample was then incubated for 5 days at 32° C. (89.6° F.). Following incubation, the sample material was serial diluted into PRD and MPB media for APB and SRB quantitation as discussed above. The biocides for FIGS. 1 and 2 are formaldehyde-releasing biocides. Tris(hydroxymethyl)nitromethane (“THNM”) and 4,4-dimethyloxazolidine (“DMO”) were obtained from DuPont®. Triazine was 1,3,5-triazine that is widely available commercially. Paraformaldehyde and […] (ratio 3:2) (“MBO”) was obtained from Vink chemicals. The formaldehyde-releasing biocides were in a concentration of 100, 150, 500, or 1,000 parts per million (“ppm”).

[2] = test system: sulfate reducing bacteria (SRB); assay: Elevated temperature study of biocides, kill testing of SRB; type: cell-based, indigenous sulfate reducing bacteria; conditions: for biocidal effectiveness against SRB (FIG. 1): biocide-dosed water at 93° C. for 1 week, then 5 days at 32° C. with bacteria
Protocol: as §1, §2

[3] = Properties that a biocide or blend possesses (Table 1)
Source text: Some of the desirable properties can include maintaining biocidal activity in fluids having a high salinity or a high concentration of total dissolved solids, thermal stability, maintaining biocidal activity in the presence of ammonia or primary amines, quick kill, maintaining biocidal activity for extended periods of time—also known as persistence, and no interaction between the biocide and other additives having a negative charge (anions) within a treatment fluid.
The second property can be different. […] It is to be understood that unlike a triazine compound, glutaraldehyde is not a formaldehyde-releasing biocide.

[4] = at comparable or lower concentrations, 93° C. for 1 week
[5] = triazine at 100 ppm, 93° C. for 1 week

Compound | biocidal effectiveness against APB (FIG. 1) [1] | biocidal effectiveness against SRB (FIG. 1) [2] | Activity in ammonia [3] | High salinity activity [3] | No interaction with anions [3] | Quick kill [3] | Thermal stability [3] | performance compared with the other formaldehyde-releasing biocides, APB (FIG. 2) ([1]; 150 ppm, 93° C. for 2 weeks) | effectiveness compared with the other formaldehyde-releasing biocides, APB (FIG. 1) [1, 4] | effectiveness compared with MBO, APB (FIG. 1) [1, 5] | performance compared with the other formaldehyde-releasing biocides, SRB (FIG. 2) ([2]; 150 ppm, 93° C. for 2 weeks) | effectiveness compared with the other formaldehyde-releasing biocides, SRB (FIG. 1) [2, 4] | effectiveness compared with MBO, SRB (FIG. 1) [2, 5]
CC1(C)COCN1 [DMO, 4,4-dimethyloxazolidine, reference compound] | effective | not SRB |  |  |  |  |  |  |  |  |  |  | 
O=CCCCC=O [Glutaraldehyde, glutaraldehyde, reference compound] |  |  | No | Yes | Yes | Yes | No |  |  |  |  |  | 
1,3,5-triazine | effective | very effective | Yes | Yes | Yes | No | Yes | performed better | as effective or more effective | as effective as MBO at 1,000 ppm | performed better | as effective or more effective | as effective as MBO at 1,000 ppm
